Literature values as cited in patent US6583280B1, “Polyamine analogues having antiproliferative activity” (priority 2000, dated 2003).
Read-outs that look alike come from different tables or passages of the source.

What was measured:
[1] = liver and kidney
[2] = biological target: polyamine transport system
[3] = tested on: L1210 murine leukemia cells
[4] = in vitro toxicity
recombinant NMDA = recombinant NMDA receptors
[5] = tested on: two human pancreatic ductal adenocarcinoma cell lines
SSAT [6] = tested on: SSAT
[7] = animal study
AdoMetDC = biological target: T1, AdoMetDC (Homo sapiens, UniProt P17707); details: inhibitor of AdoMetDC
T1 sequence (P17707 68-334 limits assumed): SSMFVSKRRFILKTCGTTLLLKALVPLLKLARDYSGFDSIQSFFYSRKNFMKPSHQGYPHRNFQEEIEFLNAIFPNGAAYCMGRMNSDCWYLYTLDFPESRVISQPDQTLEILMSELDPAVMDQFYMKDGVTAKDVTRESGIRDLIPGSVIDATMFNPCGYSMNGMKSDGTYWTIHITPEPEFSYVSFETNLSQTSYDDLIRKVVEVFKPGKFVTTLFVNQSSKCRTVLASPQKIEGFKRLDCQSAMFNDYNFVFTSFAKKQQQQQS
T1 sequence (P17707 1-67 limits assumed): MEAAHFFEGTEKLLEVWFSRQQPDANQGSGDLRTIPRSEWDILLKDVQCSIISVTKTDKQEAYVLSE

[8] = tested on: Trypanosoma brucei brucei
[9] = physiological pH
NMDA receptor = details: for IC50: MK-801 binding
spermine synthase = biological target: T2, spermine synthase (Homo sapiens, UniProt P52788); details: multisubstrate adduct inhibitor, in vitro
T2 sequence (P52788 1-366): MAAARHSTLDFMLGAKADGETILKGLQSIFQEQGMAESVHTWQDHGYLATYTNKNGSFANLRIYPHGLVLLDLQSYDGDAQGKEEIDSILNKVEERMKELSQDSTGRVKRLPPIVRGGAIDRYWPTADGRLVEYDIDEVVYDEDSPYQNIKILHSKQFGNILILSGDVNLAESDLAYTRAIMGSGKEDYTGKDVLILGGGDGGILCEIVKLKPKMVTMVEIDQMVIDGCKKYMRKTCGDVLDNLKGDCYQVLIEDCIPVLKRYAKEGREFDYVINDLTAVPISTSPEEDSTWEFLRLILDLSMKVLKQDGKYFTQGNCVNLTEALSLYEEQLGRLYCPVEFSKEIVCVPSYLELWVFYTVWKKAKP

ODC = biological target: T3, ODC (Homo sapiens, UniProt P11926)
T3 sequence (P11926 1-461): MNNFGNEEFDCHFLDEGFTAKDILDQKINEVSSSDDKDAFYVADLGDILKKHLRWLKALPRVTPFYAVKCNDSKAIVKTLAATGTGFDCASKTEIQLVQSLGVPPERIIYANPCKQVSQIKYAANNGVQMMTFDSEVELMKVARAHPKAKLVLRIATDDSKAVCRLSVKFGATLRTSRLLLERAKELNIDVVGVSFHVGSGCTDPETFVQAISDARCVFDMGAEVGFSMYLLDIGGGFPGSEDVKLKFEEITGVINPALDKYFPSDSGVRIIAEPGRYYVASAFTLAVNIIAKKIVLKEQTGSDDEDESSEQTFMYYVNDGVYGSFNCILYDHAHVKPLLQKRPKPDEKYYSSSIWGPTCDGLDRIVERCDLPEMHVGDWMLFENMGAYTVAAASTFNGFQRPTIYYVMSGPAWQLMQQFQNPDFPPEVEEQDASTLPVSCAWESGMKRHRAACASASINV

[10] = human, in vivo
SSAT [11] = biological target: T4, SSAT (Homo sapiens, UniProt P21673); details: multisubstrate inhibitor of SSAT
SSAT [12] = biological target: T4, SSAT; details: due to lack of uptake
[13] = tested on: human large cell carcinoma (LCLC); details: 10 μM
[14] = tested on: human small cell lung carcinoma line (SCLC)
[15] = target not printed, read-out: Ki
[16] = 96th, read-out: 96th IC50 toward L1210 cell growth
[17] = read-out: Ki value for the polyamine transport system
[18] = L1210 murine leukemia cells, read-out: IC50

T4 sequence (P21673 whole entry, species assumed): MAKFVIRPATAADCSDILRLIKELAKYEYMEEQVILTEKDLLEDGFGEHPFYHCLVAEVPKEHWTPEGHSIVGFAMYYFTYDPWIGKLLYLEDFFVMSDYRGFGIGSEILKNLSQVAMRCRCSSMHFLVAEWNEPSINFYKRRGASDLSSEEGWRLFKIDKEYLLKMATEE

Q: What does the source list for `CCNCCCCNCCCCNCCCCNCC` [DEHSPM]?
A: accumulation of drug and metabolites [1]: accumulate to toxic levels in the liver and kidney; Ki [2, 15]: 1400 nM; IC50 [3, 16]: 50 nM

Q: Which IC50 [4] does the source give for `NCCCCN(CCCN)Cc1ccc(B(O)O)cc1` [BBSPD-5] here?
A: Its IC50 is 5 mM.

Q: Which IC50 (recombinant NMDA) does the source give for `c1ccc(CNCCCCN(CCCNCc2ccccc2)Cc2ccccc2)cc1` [TB-3-4] here?
A: Its IC50 is 200 nM.

Q: With `CCNCCCNCCCNCCCNCC` [DENSpm, N′,N″-bis ethylnorspermine] as the compound, how does the antiproliferative activity [5] read?
A: Its antiproliferative activity is “great antiproliferative activity”.

Q: And the Ki [2, 17]?
A: Its Ki is 17000 nM.

Q: What about the “SSAT up-regulation / stimulation” value (SSAT [6]) of the same compound?
A: Its value is 15 fold.

Q: What about the IC50 [3, 18] of the same compound?
A: Its IC50 is 1300 nM.

Q: What about the “effect on polyamine pools” value (polyamine pools) of the same compound?
A: The value was “deplete all three polyamine pools”.

Q: With `NCCCCNCCCN` [spermidine] as the compound, how does the “nephrotoxicity relative to spermine” value [7] read?
A: Its value is “approximately one-twentieth”.

Q: Which results are given for `CN(CC=CCN)CC1OC(n2cnc3c(N)ncnc32)C(O)C1O` (stereo not drawn) [AbeAdo, 5′-{[(Z)-4-anino-2-butenyl]methylamino}-5′-deoxyadenosin]?
A: Ki (AdoMetDC): 300 nM; potency relative to DFMO ([8]; Trypanosoma brucei brucei): at least 100 times; effect on infection ([8]; Trypanosoma brucei brucei and multi-drug-resistant Trypanosoma brucei rhodesiense infections in mice): cures

Q: Which results are given for `C(CNC1CCNCC1)CNC1CCNCC1` [PIP (3,3,3)]?
A: fraction in the 3+ catonic state [9]: 63.2%; increase of MK-801 level (NMDA receptor; agonist): 100%

Q: With “S-(-5′-deoxy-5′-adenosyl)-1,12-diamino-3-thio-9-azadodecane [AdoDATAD]” as the compound, how does the IC50 (spermine synthase) read?
A: The IC50 was 20 µM.

Q: For `C#C[C@H](N)CC[C@@H](C)N` [RR-MAP, (2R,5R)-6-heptyne-2,5-diamine], which Ki (ODC; putrescine analogue, target not given) is on record?
A: The Ki was 3 µM.

Q: What about the “toxicity in clinical trials” value [10] of the same compound?
A: Its value is “myclosuppression and renal toxicity”.

Q: For `NCCCCNCCCCNCCCCN` [homospermine], which “agonist concentration at NMDA receptor” value (NMDA receptor) is on record?
A: The value was ≥ 10 µM.

Q: What about the IC50 (NMDA receptor) of the same compound?
A: The IC50 was 80 µM.

Q: What does the source list for `CC(C)(COP(=O)(O)OP(=O)(O)OC[C@H]1O[C@@H](n2cnc3c(N)ncnc32)[C@H](O)[C@@H]1OP(=O)(O)O)[C@@H](O)C(=O)NCCC(=O)NCCSCC(=O)NCCCNCCCN` [CNSA, N-[1-(S-coenzyme A)acetyl]-syn-norspermidine amide]?
A: IC50 (SSAT [11]): 300 nM; activity in intact cells (SSAT [12]): devoid of activity in intact cells

Q: For `NCCC[C@](N)(C(=O)O)C(F)F` [DFMO, α-difluoromethylornithine], which Ki (ODC; irreversible inhibitor of ODC) is on record?
A: Its Ki is 40 µM.

Q: And the “effect on polyamine pools” value (polyamine pools)?
A: Its value is “depletes putricine and spermidine pools, but has little effect on Spermine pools”.

Q: For `CCNCC[C@@H](O)CNCCCCNC[C@H](O)CCNCC` [(HO)2DEHPM], which “accumulation of drug and metabolites” value [1] is on record?
A: The value was “not observed”.

Q: What about the Ki [2, 15] of the same compound?
A: Its Ki is 1800 nM.

Q: And the IC50 [3, 16]?
A: The IC50 was 50 nM.

Q: For `CCNCCCNCCCCNCCCNCC` [DESpm, N′,N″-bis-ethylspermine], which Ki [2, 17] is on record?
A: Its Ki is 1600 nM.

Q: What about the “SSAT up-regulation / stimulation” value (SSAT [6]) of the same compound?
A: Its value is 4.6 fold.

Q: What about the IC50 [3, 18] of the same compound?
A: The IC50 was 180 nM.

Q: What about the “effect on polyamine pools” value (polyamine pools) of the same compound?
A: Its value is “deplete all three polyamine pools”.

Q: And the cytotoxicity [13]?
A: The cytotoxicity was “cytotoxic”.

Q: What about the “induction of SSAT” value ([13]; time- and dose-dependent) of the same compound?
A: Its value is “above 1700 fold”.

Q: And the “induction of SSAT or cytotoxic effect” value [14]?
A: Its value is “no significant induction of SSAT or cytotoxic effect”.

Q: For `c1cc(NCCCCNc2ccncc2)ccn1` [PYR (3,4,3)], which IC50 (NMDA receptor) is on record?
A: The IC50 was 8 µM.
